Patent US20220387345A1, “ANTI-CANCER COMPOUNDS ACTING AS NON-PGP SUBSTRATE” (ASCENTAWITS PHARMACEUTICALS, LTD., priority 2019, published 2022)
Like-named read-outs stand apart in the source and are kept apart here.

Key:
P-glycoprotein (P-GP) = P-glycoprotein (P-GP) (Homo sapiens, UniProt P08183); experiment: Evaluation as P-Gp substrate: penetration test in MDCKII-MDR1 cells with Verapamil as inhibitor; conditions: dog, MDCK-MDR1
Protocol: The preparation of the […] for the penetration test: • (1) MDCKII-MDR1 cells were cultured in the cell culture bottle. The conditions of the incubator were 37° C., 5% of CO2, and 95% of the relative humidity. When the cell growth confluence was up to 70-90%, the cells were inoculated to the transwell. • (2) Before the cell inoculation, 50 μL of the culture medium was respectively added to every well of the upper compartment of the transwell, and […] of the culture medium was added to the lower compartment. The transwell was incubated in the incubator under 37° C. and 5% CO2. […] The cell suspension was transferred to the upper compartment of the 96-well transwell, wherein each upper compartment contains 50 μL of the cell suspension. The final inoculum density was 5.45×10^5 cells/cm^2. • (5) The culture medium was replaced after inoculating for 48 h. After culturing for 4-8 days, the medium was changed every other day. • (6) The process of replacing the culture medium was as the follow. The upper compartment and the lower compartment were separated. The medium in the lower compartment was discarded, and then the medium in the upper compartment was discarded. Finally, 75 μL of fresh medium was added to each upper compartment and […] of fresh medium was added to the lower compartment.
Evaluation of the Cell Monolayer Integrity • (1) The MDCKII-MER1 cells should be totally confluent and complete the differentiation after culturing for 4-8 days. The MDCKII-MER1 cells can be used for the penetration test at this time. • (2) Millipore was used to measure the resistance of the cell monolayer, and the resistance of every well was recorded. • (3) After the measuring, the transwell was put back to the incubator. • (4) The calculation of the resistance: measured resistance (ohms)×area of the membrane=TEER value (ohm-cm^2). If TERR value was <42 ohm-cm^2, the well would not be used to the penetration test.
Penetration Test of the Drug • (1) The transwell of the MDCKII-MER1 cells was taken out from the incubator. The cell monolayer was rinsed two times by the buffer solution and incubated at 37° C. for 30 min. • (2) The transport rate of the compound from the top to the bottom was tested. […] 200 μL of the acetonitrile containing the internal standard (100 nM Alprazolam, 200 nM Labetalol, 200 nM caffeine and 2 μM Ketoprofen) was added to each sample tube. After the sample tubes were vortexed for 10 min, the sample tubes were centrifuged at 3220 g for 30 min. 100 μL of the supernatant was taken to be diluted with the same volume of the water, and the LC-MS/MS analysis was executed. Each sample was adopted to the three parallel incubation. • (8) After the cell monolayer was incubated for 2 h, the integrity of the cell monolayer was evaluated by the migration assay using the fluorescence yellow, the fluorescence yellow storage solution was diluted by the buffer solution, and the final concentration was 100 μM/L. 100 μL of the fluorescence yellow solution was added to each well of the upper compartment, and 300 μL of the buffer was added to each well of the lower compartment. After the transwell was incubated at 37° C. for 30 min, 80 µL of the solution from each well of the upper compartment and the lower compartment was respectively transferred to a new 96-well plate. ELISA (Enzyme-linked Immunosorbent Assay) reader was used to perform the fluorimetry with the excitation wavelength of 480 nm and the emission wavelength of 530 nm.
The peak area was calculated by the result of the ion chromatography. The permeability coefficient (Papp, unit: cm/s×10^−6) of the compound was calculated by the formula: […]

H460 = experiment: In vitro proliferation of NSCLC human tumor line H460, without or with specific AKR1C3 inhibitor; format: cell-based; conditions: H460 cells
Protocol: The cytotoxicity analysis of the human tumor cell lines in vitro was used.
IC50 (half maximal inhibitory concentration) values were in nanomoles and were obtained by the following. Cells were exposed in the compounds with different concentration for 2 hours. The compounds were washed off, and fresh medium was added into plates. A growth rate and a cell-survival rate were obtained by cell staining and compared with a control group treated with the medium only.
The compound was dissolved in 100% DMSO at 200 times of the desired final test concentration. When the drug was added, the compound was further diluted at 4 times of the desired final test concentration by the complete medium. 50 μL aliquots of the compound with specific concentration were added to the microwells contained 150 μL of medium, and then the final drug concentration was obtained. […] After the incubation was finished, the Alamar Blue was used to analyze and quantify the alive cells.
Before 2 h of the compound was prepared, the compound with the inhibitor was added to the cell culture. The inhibitor was […]

[1] = in the presence of specific AKR1C3 inhibitor (TH3021, 3 μmol concentration), read-out: Inhibitory effect of the proliferation of the cancer cells IC50 of +TH3021
[2] = Homo sapiens, NCI-H460, 2 h exposure, washed, further 70 h, Alamar Blue, read-out: Inhibitory effect of the proliferation of the cancer cells IC50

Chain of P-glycoprotein (P-GP) (P08183 whole entry): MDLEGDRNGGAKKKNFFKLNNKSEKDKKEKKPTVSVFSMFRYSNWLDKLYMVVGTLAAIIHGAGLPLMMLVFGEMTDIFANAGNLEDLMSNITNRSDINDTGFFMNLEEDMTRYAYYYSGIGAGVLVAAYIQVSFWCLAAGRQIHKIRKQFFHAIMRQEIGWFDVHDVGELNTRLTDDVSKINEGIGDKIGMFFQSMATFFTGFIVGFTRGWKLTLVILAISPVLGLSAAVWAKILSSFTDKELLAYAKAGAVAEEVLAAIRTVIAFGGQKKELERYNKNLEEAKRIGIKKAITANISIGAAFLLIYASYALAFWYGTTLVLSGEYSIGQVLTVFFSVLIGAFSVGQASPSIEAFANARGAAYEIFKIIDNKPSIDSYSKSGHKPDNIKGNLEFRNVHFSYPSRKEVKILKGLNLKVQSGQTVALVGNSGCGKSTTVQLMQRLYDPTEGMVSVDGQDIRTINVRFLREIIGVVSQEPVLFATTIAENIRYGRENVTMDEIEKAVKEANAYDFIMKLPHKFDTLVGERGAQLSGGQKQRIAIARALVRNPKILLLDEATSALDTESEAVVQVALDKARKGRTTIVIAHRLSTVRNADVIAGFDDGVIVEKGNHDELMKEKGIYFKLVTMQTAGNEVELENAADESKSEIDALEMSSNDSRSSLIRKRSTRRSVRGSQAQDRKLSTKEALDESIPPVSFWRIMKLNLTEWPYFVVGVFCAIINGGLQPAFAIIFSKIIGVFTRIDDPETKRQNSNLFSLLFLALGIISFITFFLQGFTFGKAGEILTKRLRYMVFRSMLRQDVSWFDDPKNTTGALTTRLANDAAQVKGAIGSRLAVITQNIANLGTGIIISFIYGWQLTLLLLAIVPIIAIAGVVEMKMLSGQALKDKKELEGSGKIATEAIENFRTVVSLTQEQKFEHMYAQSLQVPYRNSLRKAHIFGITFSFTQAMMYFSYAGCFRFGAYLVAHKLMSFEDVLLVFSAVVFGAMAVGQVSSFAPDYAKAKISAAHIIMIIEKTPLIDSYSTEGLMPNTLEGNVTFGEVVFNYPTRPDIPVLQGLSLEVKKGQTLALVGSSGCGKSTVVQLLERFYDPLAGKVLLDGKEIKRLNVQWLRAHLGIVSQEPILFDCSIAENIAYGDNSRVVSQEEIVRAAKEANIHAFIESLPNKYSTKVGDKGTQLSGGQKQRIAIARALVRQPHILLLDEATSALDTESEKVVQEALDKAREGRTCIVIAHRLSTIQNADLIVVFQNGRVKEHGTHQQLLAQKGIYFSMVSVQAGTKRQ

Row | SMILES | efflux ratio at 2 h (P-glycoprotein (P-GP)) | IC50 (H460; [1]) [nM] | IC50 (H460; [2]) [nM] | IC50 (H460; 2 h exposure, washed, further 70 h, Alamar Blue, read-out: Inhibitory effect of the proliferation of the cancer cells IC50) [nM]
1 | O=[N+]([O-])c1ccc(COP(=O)(N2CC2)N2CC2)cc1Oc1ccc(-c2ccc(F)cc2)c(F)c1 [Compound 1] | 1 | 40 | 0.87 | 
2 | O=[N+]([O-])c1ccc(COP(=O)(N2CC2)N2CC2)cc1Oc1ccc(-c2ccc(F)cc2)cc1 [Compound 2] | 1.53 | 105 | 1.89 | 
3 | O=[N+]([O-])c1cc(F)c(COP(=O)(N2CC2)N2CC2)cc1Oc1ccc(-c2ccc(F)cc2)cc1 [Compound 3] | 1.2 | 47.8 | 1.84 | 
4 | O=[N+]([O-])c1ccc(COP(=O)(N2CC2)N2CC2)cc1Oc1ccc(-c2ccc(F)cc2F)c(F)c1 [Compound 4] | 0.87 | 16.3 | 0.67 | 
5 | Cc1cc(F)ccc1-c1ccc(Oc2cc(COP(=O)(N3CC3)N3CC3)ccc2[N+](=O)[O-])cc1F [Compound 5] | 1.69 | 5.04 | 0.59 | 
6 | O=[N+]([O-])c1ccc(COP(=O)(N2CC2)N2CC2)cc1Oc1ccc(C(F)(F)F)nc1 [Compound 6] |  | 38.2 | 0.46 | 
7 | O=[N+]([O-])c1ccc(COP(=O)(N2CC2)N2CC2)cc1Oc1ccc(-c2ccc(F)cc2)nc1 [Compound 7] | 1.54 | 19.7 | 0.71 | 
8 | O=[N+]([O-])c1ccc(COP(=O)(N2CC2)N2CC2)cc1Oc1ccc(-c2ccc(F)cc2F)nc1 [Compound 8] |  | 26.8 | < 1.5 | 
9 | O=[N+]([O-])c1ccc(COP(=O)(N2CC2)N2CC2)cc1Oc1ccc(Cl)nc1 [Compound 9] |  | 56.1 | < 1.5 | 
10 | O=[N+]([O-])c1ccc(COP(=O)(N2CC2)N2CC2)cc1Oc1ccc(-c2ccc(F)cn2)cc1 [Compound 10] | 1.43 | 29.6 | 1.15 | 
11 | O=[N+]([O-])c1ccc(COP(=O)(N2CC2)N2CC2)cc1Oc1ccc(-c2ccc(F)cn2)c(F)c1 [Compound 11] |  | 92.2 | 0.211 | 
12 | O=[N+]([O-])c1ccc(COP(=O)(N2CC2)N2CC2)cc1Oc1ccc(-c2ccc(F)cc2F)nc1 [Compound 12] |  | 11.4 |  | < 1.5
13 | O=[N+]([O-])c1ccc(C(OP(=O)(N2CC2)N2CC2)C(F)(F)F)cc1Oc1cccc(-c2ccc(F)cc2)c1 (stereo not shown) [Compound 13] |  | 1890 | 30 | 
14 | O=[N+]([O-])c1ccc(C(OP(=O)(N2CC2)N2CC2)C(F)(F)F)cc1Oc1ccc(-c2ccc(F)cc2F)cc1 (stereo not shown) [Compound 14] | 1.26 | > 1000 | 11.4 | 
15 | O=[N+]([O-])c1ccc(C(OP(=O)(N2CC2)N2CC2)C(F)(F)F)cc1Oc1ccc(-c2ccc(F)cc2)c(F)c1 (stereo not shown) [Compound 15] | 1.36 |  | 6.78 | 
16 | O=[N+]([O-])c1ccc(C(OP(=O)(N2CC2)N2CC2)C(F)(F)F)cc1Oc1ccc(-c2ccc(F)cc2F)c(F)c1 (stereo not shown) [Compound 16] | 1.96 | > 500 | 7.26 | 
17 | O=[N+]([O-])c1ccc(C(OP(=O)(N2CC2)N2CC2)C(F)(F)F)cc1Oc1ccc(-c2ccc(F)cc2)nc1 (stereo not shown) [Compound 17] |  | > 10000 | 35.5 | 
18 | O=[N+]([O-])c1ccc(C(OP(=O)(N2CC2)N2CC2)C(F)(F)F)cc1Oc1ccc(-c2ccc(C(F)(F)F)cc2)nc1 (stereo not shown) [Compound 18] |  | > 10000 | 313 | 
19 | O=[N+]([O-])c1ccc(C(OP(=O)(N2CC2)N2CC2)C(F)(F)F)cc1Oc1ccc(-c2ccc(F)cn2)cc1 (stereo not shown) [Compound 19] |  | > 10000 | 46.8 | 
20 | Cc1ccc(NC(=O)c2ccc(CN3CCN(C)CC3)cc2)cc1Nc1nccc(-c2cccnc2)n1 [Imatinib, reference compound] | 18.1 |  |  | 
21 | COc1cc2nc(N3CCN(C(=O)c4ccco4)CC3)nc(N)c2cc1OC [Prazosin, reference compound] | 2.87 |  |  | 
